{"source": "BigSolDB 2.1", "data": [{"compound": "C=CC(=O)NCO", "values": [{"measurement": "solubility (mole fraction)", "setting": "in acetonitrile, 279.15 K", "value": 0.0244}, {"measurement": "solubility (mole fraction)", "setting": "in acetonitrile, 282.05 K", "value": 0.0276}, {"measurement": "solubility (mole fraction)", "setting": "in acetonitrile, 288.15 K", "value": 0.0341}, {"measurement": "solubility (mole fraction)", "setting": "in acetonitrile, 292.75 K", "value": 0.041}, {"measurement": "solubility (mole fraction)", "setting": "in acetonitrile, 298.15 K", "value": 0.0499}, {"measurement": "solubility (mole fraction)", "setting": "in acetonitrile, 304.05 K", "value": 0.0614}, {"measurement": "solubility (mole fraction)", "setting": "in acetonitrile, 308.55 K", "value": 0.0716}, {"measurement": "solubility (mole fraction)", "setting": "in chloroform, 279.65 K", "value": 0.0011}, {"measurement": "solubility (mole fraction)", "setting": "in chloroform, 282.35 K", "value": 0.0013}, {"measurement": "solubility (mole fraction)", "setting": "in chloroform, 286.05 K", "value": 0.0015}, {"measurement": "solubility (mole fraction)", "setting": "in chloroform, 289.85 K", "value": 0.0019}, {"measurement": "solubility (mole fraction)", "setting": "in chloroform, 294.45 K", "value": 0.0023}, {"measurement": "solubility (mole fraction)", "setting": "in chloroform, 299.15 K", "value": 0.0029}, {"measurement": "solubility (mole fraction)", "setting": "in chloroform, 303.25 K", "value": 0.0035}, {"measurement": "solubility (mole fraction)", "setting": "in dichloromethane, 277.55 K", "value": 0.0018}, {"measurement": "solubility (mole fraction)", "setting": "in dichloromethane, 280.35 K", "value": 0.0019}, {"measurement": "solubility (mole fraction)", "setting": "in dichloromethane, 282.95 K", "value": 0.0021}, {"measurement": "solubility (mole fraction)", "setting": "in dichloromethane, 285.55 K", "value": 0.0023}, {"measurement": "solubility (mole fraction)", "setting": "in dichloromethane, 288.15 K", "value": 0.0025}, {"measurement": "solubility (mole fraction)", "setting": "in dichloromethane, 291.75 K", "value": 0.0028}, {"measurement": "solubility (mole fraction)", "setting": "in ethyl acetate, 278.55 K", "value": 0.0109}, {"measurement": "solubility (mole fraction)", "setting": "in ethyl acetate, 281.85 K", "value": 0.0127}, {"measurement": "solubility (mole fraction)", "setting": "in ethyl acetate, 285.05 K", "value": 0.0146}, {"measurement": "solubility (mole fraction)", "setting": "in ethyl acetate, 289.15 K", "value": 0.0176}, {"measurement": "solubility (mole fraction)", "setting": "in ethyl acetate, 296.95 K", "value": 0.0248}, {"measurement": "solubility (mole fraction)", "setting": "in ethyl acetate, 300.95 K", "value": 0.0294}, {"measurement": "solubility (mole fraction)", "setting": "in ethyl acetate, 305.05 K", "value": 0.0351}, {"measurement": "solubility (mole fraction)", "setting": "in furan, 278.55 K", "value": 0.0445}, {"measurement": "solubility (mole fraction)", "setting": "in furan, 282.05 K", "value": 0.0515}, {"measurement": "solubility (mole fraction)", "setting": "in furan, 284.45 K", "value": 0.0574}, {"measurement": "solubility (mole fraction)", "setting": "in furan, 288.25 K", "value": 0.0683}, {"measurement": "solubility (mole fraction)", "setting": "in furan, 291.45 K", "value": 0.0789}, {"measurement": "solubility (mole fraction)", "setting": "in furan, 294.85 K", "value": 0.0919}, {"measurement": "solubility (mole fraction)", "setting": "in furan, 297.25 K", "value": 0.102}, {"measurement": "solubility (mole fraction)", "setting": "in n-butyl acetate, 278.05 K", "value": 0.0037}, {"measurement": "solubility (mole fraction)", "setting": "in n-butyl acetate, 281.15 K", "value": 0.0045}, {"measurement": "solubility (mole fraction)", "setting": "in n-butyl acetate, 284.35 K", "value": 0.0055}, {"measurement": "solubility (mole fraction)", "setting": "in n-butyl acetate, 288.95 K", "value": 0.0073}, {"measurement": "solubility (mole fraction)", "setting": "in n-butyl acetate, 292.05 K", "value": 0.0087}, {"measurement": "solubility (mole fraction)", "setting": "in n-butyl acetate, 295.35 K", "value": 0.0105}, {"measurement": "solubility (mole fraction)", "setting": "in n-butyl acetate, 301.45 K", "value": 0.0148}, {"measurement": "solubility (mole fraction)", "setting": "in pyridine, 278.55 K", "value": 0.232}, {"measurement": "solubility (mole fraction)", "setting": "in pyridine, 281.35 K", "value": 0.245}, {"measurement": "solubility (mole fraction)", "setting": "in pyridine, 286.95 K", "value": 0.272}, {"measurement": "solubility (mole fraction)", "setting": "in pyridine, 292.25 K", "value": 0.303}, {"measurement": "solubility (mole fraction)", "setting": "in pyridine, 297.95 K", "value": 0.339}, {"measurement": "solubility (mole fraction)", "setting": "in pyridine, 302.15 K", "value": 0.367}, {"measurement": "solubility (mole fraction)", "setting": "in pyridine, 306.25 K", "value": 0.401}, {"measurement": "solubility (mole fraction)", "setting": "in toluene, 279.75 K", "value": 0.0004}, {"measurement": "solubility (mole fraction)", "setting": "in toluene, 284.35 K", "value": 0.0006}, {"measurement": "solubility (mole fraction)", "setting": "in toluene, 287.95 K", "value": 0.0008}, {"measurement": "solubility (mole fraction)", "setting": "in toluene, 291.55 K", "value": 0.0009}, {"measurement": "solubility (mole fraction)", "setting": "in toluene, 294.95 K", "value": 0.0011}, {"measurement": "solubility (mole fraction)", "setting": "in toluene, 298.55 K", "value": 0.0014}, {"measurement": "solubility (mole fraction)", "setting": "in toluene, 305.35 K", "value": 0.002}]}]}
